“Also recorded” adds a separate entry of the source.
Columns and labels:
[1] = tested on: hnRNP A2/B1; assay: Pull-down with biotinylated analogs, western blot; format: binding, human; conditions: WM266-4 lysates
Procedure: (§1) WM-266-4 and M14 cells were sonicated in RIPA lysis buffer containing added protease inhibitors. Affinity beads were prepared by addition of the 0.3 mg biotinylated probes to the 50 μL of streptavidin agarose resin, which was washed three times with the lysis buffer. Following incubation at 4° C. for 1 h, the obtained affinity beads complexed with biotinylated compounds were washed three times with lysis buffer to remove any unbound materials. The cell lysates (1 mg protein content) were then added to the probe-bound beads, and samples were incubated at 4° C. for 1 h and overnight on a rotator. Following 5 washes with lysis buffer, the samples were subjected to SDS-PAGE. The gels were stained overnight with colloidal blue (Invitrogen). Gel bands of interest were excised, reduced, carbidomethylated, dehydrated, and digested with Trypsin Gold (Promega) as per manufacturers' instructions. Following digestion, peptides were extracted, all fractions were combined, and the volume was reduced in a SpeedVac to near dryness, and re-suspended to 20 μL using 95% ddH2O/5% ACN/0.1% formic acid (FA) prior to analysis by 1D reversed-phase LC-nESI-MS2 (as outlined below) (Ludwig, M. R. et al. Surveying the serologic proteome in a tissue-specific kras(G12D) knockin mouse model of pancreatic cancer. Proteomics 16, 516-531, doi:10.1002/pmic.201500133 2016).
(§2) WM-266-4 cells were sonicated in RIPA lysis buffer containing protease inhibitors. Affinity beads were prepared by addition of the biotinylated probes (0.3 mg) to the streptavidin agarose resin (50 μL), which was first washed three times with the lysis buffer. […] The protein extract (1 mg) was then added to the probe-bound beads, and samples were incubated at 4° C. overnight. Following 5 washes with lysis buffer, the protein isolates were subjected to SDS-PAGE followed by transfer to nitrocellulose membrane. hnRNP H2 was detected using rabbit polyclonal antibody (Abgent #: AP13497b; 1:3,000, in 2% milk overnight), DDX1 monoclonal antibody (Santa Cruz #sc-271393, 1:1,000 in 2% BSA overnight), or hnRNP B1/A2 monoclonal antibody (Santa Cruz #SC-32316, 1:1,000 in 2% BSA overnight). After washing with TBST, the membranes were treated with chemilumiscent horseradish peroxidase detection reagent (Thermo Scientific, Cat #32209) and exposed to autoradiography film (Denville Scientific, Inc., Metuchen, N.J., USA, cat #E3018). ImageJ software (NIH, Bethesda, Md.) was used to quantify the intensity of proteins bands. The protein bands were normalized against loading controls.

[2] = tested on: hnRNP H2; assay: Pull-down with biotinylated analogs, western blot; format: binding, human; conditions: WM266-4 lysates
Procedure: as §1, §2

[3] = tested on: LC3-II and beclin-1 in WM266-4 cells; assay: Western blotting for LC3 and beclin-1, WM266-4; format: cell-based, human
Procedure: (§3) 1×10^6 of WM266-4 or M14 cells were seeded in 3 mL of E-MEM or RPMI-1640 medium supplemented with 10% FBS and 1% penicillin/streptomycin in 6 cm plates. […] After washing with TBST, the membranes were treated with chemilumiscent horseradish peroxidase detection reagent (Thermo Scientific, Cat #32209) and exposed to autoradiography film (Denville Scientific, Inc., Metuchen, N.J., USA, cat #E3018). ImageJ software (NIH, Bethesda, Md.) was used to quantify the intensity of proteins bands. The protein bands were normalized against loading controls (β-actin) and expressed as a fold of an untreated control.

[4] = tested on: WM266-4 cells; assay: CellTiter-Glo cell viability assay, WM266-4 (including rescue assays); format: cell-based, human; conditions: for IC50: WM 266-4, 72 h
Procedure: (§4) Cells were plated in 384-well plates in 8 μL of media. Test compounds and dabrafenib (pharmacological assay control) were prepared as 10-point, 1:3 serial dilutions starting at 300 μM, then added to the cells (4 μL per well) using the Biomek Plates were incubated for 72 h at 37° C., 5% CO2 and 95% relative humidity. After incubation, 4 μL of CellTiter-Glo® (Promega cat #: G7570) were added to each well, and incubated for 15 min at room temperature. Luminescence was recorded using a Biotek Synergy H4 multimode microplate reader. Viability was expressed as a percentage relative to wells containing media only (0%) and wells containing cells treated with DMSO only (100%). Three parameters were calculated on a per-plate basis: (a) the signal-to-background ratio (SB); (b) the coefficient for variation [CV; CV=(standard deviation/mean)×100)] for all compound test wells; and (c) the Z′-factor (18). The IC50 value of the pharmacological control (dabrafenib, LC Laboratories #G-4408) was also calculated to ascertain the assay robustness. In case of viability rescue assays, cells were pre-treated with caspase, calpain, and autophagy inhibitors for 1-3 h before addition of test compounds. Time course viability assay was done with luminescence measurements performed at 4, 24, 48, and 72 h.

[5] = tested on: cleaved lamin A/C in WM266-4 cells; assay: Western blotting for lamin A/C cleavage; format: cell-based, human; conditions: for cleaved lamin A/C level: 100 μM, 24 h
Procedure: as §3, with “controls.” for “controls (β-actin) and expressed as a fold of an untreated control.”

[6] = tested on: WM266-4 cells; assay: Cell staining for autophagy (autophagosome dye); format: cell-based, human; conditions: dansylated analog, 25 μM
Procedure: WM266-4 cells were seeded at 10,000 cells/well in 0.1 mL of E-MEM medium supplemented with 10% FBS and 1% penicillin/streptomycin in 96 well plates (Greiner Bio-One CellStar cat #655180) and allowed to adhere overnight. After overnight incubation 100 μM 2155-14, 2155-18, 50 nM hnRNPH2 siRNA or 25 μM 2476-67.2 were added and incubated for various length of time. Cells were rinsed with warm PBS and stained with CYTO-ID® 1.0 Autophagy reagent (Enzo ENZ-51031-0050) and counterstained with DAPI. Cells were imaged using Cytation 5 imager (Biotek Inc, Winooski, Vt.) using GFP and DAPI filter sets. For % autophagic cells calculations cell counts were conducted using DAPI-stained nuclei and Object Sum Area value was obtained from at least 1,000 cells/well using DAPI channels. To obtain number of cells undergoing autophagy the cell count was conducted using GFP channel. Both GFP and DAPI cell counts were conducted using optimized algorithm in automatic mode. 8 replicate wells were used. % autophagic cells was calculated using Equation 1:% autophagic cells=100%*(number of cells, GFP channenumber of cells, DAPI channel)
To calculate staining intensity, the Object Sum Area value from GFP channel was obtained and divided by number of cells using DAPI channel. Both GFP and DAPI cell counts were conducted using optimized algorithm in automatic mode. 3 replicate wells were used.

[7] = tested on: WM266-4 cells; assay: Cell staining with dansylated derivatives of 2155-14; format: cell-based, human; conditions: 100 μM
Procedure: WM266-4 cells were seeded at 10,000 cells/well in 0.1 mL of E-MEM medium supplemented with 10% FBS and 1% penicillin/streptomycin in 96 well plates (Greiner Bio-One CellStar cat #655180) and allowed to adhere overnight. After overnight incubation cells were stained with 100 μM of fluorescent analogs of 2155-14 for various length of time, and rinsed with warm PBS. Cells were imaged using Cytation 5 imager (Biotek Inc, Winooski, Vt.) using custom filter set: λexcitation=377/50 and λemission=542/27 nm.

[8] = tested on: calpain in WM266-4 cells; assay: Calpain activity assay (Calpain-Glo); format: cell-based, human; conditions: 20 μM; from 30 min, persisted at 4 and 24 h
Procedure: The Calpain-Glo Protease Assay (Promega cat #) was used to measure the calpain enzyme activity in live cells, according to the manufacturer's instructions. 1,250 of WM-266-4 cells were plated in 384-well white TC-treated plates in 5 μL of serum-free EMEM media. The cells were incubated overnight at 37° C., 5% CO2 and 95% relative humidity and 5 μL of test compounds 2155-14, (100 μM), calpain inhibitor III and PD151746 (25 μM) were added alone or in combination and incubated at 37° C., 5% CO2, and 95% relative humidity for 0.5, 4, and 24 h. After incubation, 10 μL, of a freshly prepared dilution of the Calpain-Glo Reagent stock solution (consisting of Suc-LLVY-Glo™ substrate, Calpain-Glo™ buffer, Luciferin Detection Reagent, and CaCl2) was added to cells at above mentioned times and luminescence was recorded with a Neo 2 microplate reader (Biotek Inc). All experiments were performed in triplicate and the values provided are the calculated average of at least three independent experiments.

[9] = tested on: mouse embryonic fibroblasts (MEF); assay: Viability of mouse embryonic fibroblasts; format: cell-based
Procedure: as §4

[10] = tested on: HSP90; conditions: human, in vivo; cited from earlier work
[11] = tested on: lamin A/C; assay: Pull-down with biotinylated analogs; format: binding, human; conditions: WM266-4 lysates
Procedure: as §1

[12] = target: T1, DDX1 (Homo sapiens, UniProt Q92499); assay: Pull-down with biotinylated analogs, western blot; format: binding; conditions: WM266-4 lysates
T1 construct: WM-266-4 and M14 cells were sonicated in RIPA lysis buffer; endogenous in cells; host or cells: WM266-4 (and M14) melanoma cells and lysates
Procedure: WM-266-4 and M14 cells were sonicated in RIPA lysis buffer containing added protease inhibitors. Affinity beads were prepared by addition of the 0.3 mg biotinylated probes to the 50 μL of streptavidin agarose resin, which was washed three times with the lysis buffer. Following incubation at 4° C. for 1 h, the obtained affinity beads complexed with biotinylated compounds were washed three times with lysis buffer to remove any unbound materials. The cell lysates (1 mg protein content) were then added to the probe-bound beads, and samples were incubated at 4° C. for 1 h and overnight on a rotator. Following 5 washes with lysis buffer, the samples were subjected to SDS-PAGE. The gels were stained overnight with colloidal blue (Invitrogen). […]
WM-266-4 cells were sonicated in RIPA lysis buffer containing protease inhibitors. […] Following 5 washes with lysis buffer, the protein isolates were subjected to SDS-PAGE followed by transfer to nitrocellulose membrane. hnRNP H2 was detected using rabbit polyclonal antibody (Abgent #: AP13497b; 1:3,000, in 2% milk overnight), DDX1 monoclonal antibody (Santa Cruz #sc-271393, 1:1,000 in 2% BSA overnight), or hnRNP B1/A2 monoclonal antibody (Santa Cruz #SC-32316, 1:1,000 in 2% BSA overnight). […] ImageJ software (NIH, Bethesda, Md.) was used to quantify the intensity of proteins bands. […]

T1 sequence (Q92499 whole entry): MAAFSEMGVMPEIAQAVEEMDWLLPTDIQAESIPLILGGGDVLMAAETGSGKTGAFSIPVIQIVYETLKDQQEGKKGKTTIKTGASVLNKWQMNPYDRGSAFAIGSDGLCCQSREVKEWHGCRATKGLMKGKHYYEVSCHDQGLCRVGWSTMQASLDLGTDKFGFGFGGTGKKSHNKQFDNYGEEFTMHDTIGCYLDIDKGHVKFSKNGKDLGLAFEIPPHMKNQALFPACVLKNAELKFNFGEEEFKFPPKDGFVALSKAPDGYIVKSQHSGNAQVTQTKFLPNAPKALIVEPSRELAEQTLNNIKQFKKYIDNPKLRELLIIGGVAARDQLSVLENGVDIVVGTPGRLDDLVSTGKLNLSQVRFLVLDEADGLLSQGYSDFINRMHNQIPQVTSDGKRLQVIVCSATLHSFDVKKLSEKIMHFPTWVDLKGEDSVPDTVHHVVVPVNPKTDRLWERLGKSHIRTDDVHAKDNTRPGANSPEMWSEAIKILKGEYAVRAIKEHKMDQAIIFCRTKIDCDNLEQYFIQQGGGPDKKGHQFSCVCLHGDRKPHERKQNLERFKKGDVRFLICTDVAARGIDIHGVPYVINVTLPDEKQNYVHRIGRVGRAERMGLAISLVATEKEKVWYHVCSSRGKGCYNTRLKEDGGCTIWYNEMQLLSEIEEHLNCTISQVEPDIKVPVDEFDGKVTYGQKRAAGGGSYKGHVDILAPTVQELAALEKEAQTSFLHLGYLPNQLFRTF

O=C(CCCC[C@@H]1SC[C@@H]2NC(=O)N[C@@H]21)NCCCC[C@H]1CNC(=O)C(=O)N1C[C@@H]1CCCN1C[C@@H](CC1CCCCC1)N1C[C@H](Cc2ccc(O)cc2)N(CCc2ccccc2)C(=O)C1=O [Compound 2529-3, N-(4-((S)-1-(((S)-1-((R)-3-cyclohexyl-2-((S)-5-(4-hydroxybenzyl)-2,3-dioxo-4-phenethylpiperazin-1-yl)propyl)pyrrolidin-2-yl)methyl)-5,6-dioxopiperazin-2-yl)butyl)-5-((3aS,4S,6aR)-2-oxohexahydro-1H-thieno[3,4-d]imidazol-4-yl)pentanamide]
hnRNP A2/B1 in pulldown, western blot [1]: no bands were found | hnRNP H2 in pulldown, western blot [2]: two bands; also recorded: much less abundant | LC3-II level ([3]; 100 μM, 24 h): did not significantly increase | IC50 ([4]; Homo sapiens, 72 h): > 100 µM | cytotoxicity at 100 µM ([4]; Homo sapiens, WM 266-4, 100 μM, 72 h, read-out: maximal inhibition of cell viability): 42% | cleaved lamin A/C level [5]: did not significantly increase; also recorded: had no effect on cleavage of lamin A/C

CN(C)c1cccc2c(S(=O)(=O)NCCN3C(=O)C(=O)N([C@H](CC4CCCCC4)CN4CCC[C@H]4CN4C(=O)C(=O)NC[C@@H]4Cc4ccccc4)C[C@@H]3Cc3ccc(O)cc3)cccc12 [Compound 2476-67.2, N-(2-((S)-4-((R)-1-((S)-2-(((S)-6-benzyl-2,3-dioxopiperazin-1-yl)methyl)pyrrolidin-1-yl)-3-cyclohexylpropan-2-yl)-6-(4-hydroxybenzyl)-2,3-dioxopiperazin-1-yl)ethyl)-5-(dimethylamino)naphthalene-1-sulfonamide]
LC3-II level ([3]; 2.5 μM, 24 hr): no cleavage of lamin A/C or increase of levels of LC3-II was detected | LC3 western blot ([3]; 5 μM, 24 hr): neither of LC3 isoforms nor actin were detected | autophagosome dye staining [6]: intensive green staining | lamin A/C cleavage ([5]; 2.5 μM, 24 hr): no cleavage of lamin A/C | lamin A/C western blot ([5]; 5 μM, 24 hr): striking increase of cleaved lamin A/C | staining of cytoplasm [7]: Diffuse staining of the cytoplasm | staining of nuclear envelope ([7]; 1 h up to 48 h): stains nuclear membrane in both WM266-4 and M14 cells

CCCNC(=O)[C@H]1O[C@@H]1C(=O)N[C@H](C(=O)N1CCC[C@H]1C(=O)O)[C@@H](C)CC [CA074, reference compound]
increase of calpain activity [8]: ~5 fold | viability of WM266-4 cells ([4]; 24 h, 20 μM cathepsin B inhibitor): 25%

CCCS(=O)(=O)Nc1ccc(F)c(C(=O)c2c[nH]c3ncc(-c4ccc(Cl)cc4)cc23)c1F [vemurafenib, reference compound]
toxicity to mouse embryonic fibroblasts [9]: toxic

C=CCNC1=C2C[C@@H](C)C[C@H](OC)[C@H](O)[C@@H](C)/C=C(\C)[C@H](OC(N)=O)[C@@H](OC)/C=C\C=C(/C)C(=O)NC(=CC1=O)C2=O [Compound 17-AAG]
clinical outcome in patients carrying BRAF or NRAS mutation [10]: melanoma stabilization

O=C(CCCC[C@H]1SC[C@H]2NC(=O)N[C@H]21)NCCCC[C@H]1CN([C@H](CC2CCCCC2)CN2CCC[C@H]2CN2C(=O)C(=O)NC[C@@H]2Cc2ccccc2)C(=O)C(=O)N1CCc1ccccc1 [Compound 2529-7, N-(4-((S)-4-((R)-1-((S)-2-(((S)-6-benzyl-2,3-dioxopiperazin-1-yl)methyl)pyrrolidin-1-yl)-3-cyclohexylpropan-2-yl)-5,6-dioxo-1-phenethylpiperazin-2-yl)butyl)-5-((3aR,4R,6aS)-2-oxohexahydro-1H-thieno[3,4-d]imidazol-4-yl)pentanamide]
hnRNP A2/B1 in pulldown, western blot [1]: three bands | hnRNP H2 in pulldown, western blot [2]: two bands | lamin A/C interaction in pulldown [11]: lack of lamin A/C interaction | DDX1 in pulldown, western blot [12]: confirmed | LC3-II level ([3]; 100 μM, 24 h): increased LC3-II to the levels of 2155-14/2529-1; also recorded: effect on LC3-II levels similar to non-biotinylated 2155-14/2529-1 | inhibition of WM266-4 viability ([4]; 100 μM, 72 h): completely inhibited viability | IC50 ([4]; Homo sapiens, 72 h): 3.3 ± 0.5 µM | cleaved lamin A/C level [5]: failing to increase levels of cleaved lamin A/C; also recorded: had no effect on cleavage of lamin A/C; also recorded: did not induce cleavage of lamin A/C

From patent US11149028B2, “Methods for treating melanoma using small molecules” (NOVA SOUTHEASTERN UNIVERSITY, priority 2016, dated 2021)
